From ChEMBL document CHEMBL5614367, “Hydroxamic acid hybrids: Histone deacetylase inhibitors with anticancer therapeutic potency” (Eur J Med Chem, 2023)

Key:
[1] = system: SW-620; experiment: Antiproliferative activity against human SW620 cells incubated for 48 hrs by colorimetric method; format: functional, cell-based; conditions: SW-620, 48 h
[2] = system: PC-3; experiment: Antiproliferative activity against human PC-3 cells incubated for 48 hrs by colorimetric method; format: functional, cell-based; conditions: PC-3, 48 h
[3] = system: NCI-H23; experiment: Antiproliferative activity against human NCI-H23 cells incubated for 48 hrs by colorimetric method; format: functional, cell-based; conditions: NCI-H23, 48 h
[4] = target: T1, Protein deacetylase HDAC6 (Homo sapiens, UniProt Q9UBN7); experiment: Inhibition of HDAC6 (unknown origin) incubated for 30 mins in presence of fluorimetric assay
T1 sequence (Q9UBN7 whole entry): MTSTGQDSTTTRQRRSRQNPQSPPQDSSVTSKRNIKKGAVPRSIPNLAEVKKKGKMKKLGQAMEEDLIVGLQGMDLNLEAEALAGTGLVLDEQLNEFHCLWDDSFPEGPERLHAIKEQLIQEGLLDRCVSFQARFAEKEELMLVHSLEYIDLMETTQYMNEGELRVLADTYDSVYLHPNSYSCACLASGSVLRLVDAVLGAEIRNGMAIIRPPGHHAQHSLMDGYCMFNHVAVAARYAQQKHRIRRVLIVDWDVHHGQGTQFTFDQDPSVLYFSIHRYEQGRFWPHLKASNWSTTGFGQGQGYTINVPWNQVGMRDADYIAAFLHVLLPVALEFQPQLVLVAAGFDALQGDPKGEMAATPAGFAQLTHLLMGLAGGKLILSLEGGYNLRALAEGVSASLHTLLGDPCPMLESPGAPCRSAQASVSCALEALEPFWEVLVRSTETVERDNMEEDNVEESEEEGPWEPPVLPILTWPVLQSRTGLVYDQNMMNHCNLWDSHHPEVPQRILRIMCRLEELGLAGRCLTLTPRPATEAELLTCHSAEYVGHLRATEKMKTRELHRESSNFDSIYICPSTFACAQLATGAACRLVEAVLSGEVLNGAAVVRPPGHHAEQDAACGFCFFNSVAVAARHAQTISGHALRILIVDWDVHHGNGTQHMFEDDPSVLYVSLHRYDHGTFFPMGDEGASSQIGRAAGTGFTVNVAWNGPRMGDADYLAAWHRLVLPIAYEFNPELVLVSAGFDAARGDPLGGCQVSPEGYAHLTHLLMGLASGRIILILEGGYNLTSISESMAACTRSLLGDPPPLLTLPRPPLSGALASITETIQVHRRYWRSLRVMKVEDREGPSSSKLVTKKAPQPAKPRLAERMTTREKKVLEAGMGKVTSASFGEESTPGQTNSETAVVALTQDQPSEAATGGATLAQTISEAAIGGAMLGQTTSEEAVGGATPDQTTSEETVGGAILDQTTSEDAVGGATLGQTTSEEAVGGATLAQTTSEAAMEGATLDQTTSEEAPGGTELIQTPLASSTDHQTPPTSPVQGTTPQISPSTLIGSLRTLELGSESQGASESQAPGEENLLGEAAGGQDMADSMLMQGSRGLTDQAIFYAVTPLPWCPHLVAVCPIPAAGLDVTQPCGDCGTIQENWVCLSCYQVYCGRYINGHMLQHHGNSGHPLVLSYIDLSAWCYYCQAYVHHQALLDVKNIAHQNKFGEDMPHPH

[5] = target: T1, Protein deacetylase HDAC6; experiment: Inhibition of HDAC6 (unknown origin)
[6] = system: U-87 MG; experiment: Antiproliferative activity against human U-87 MG cells; format: functional, cell-based, U-87MG ATCC
[7] = system: SCC-25; experiment: Antiproliferative activity against human SCC-25 cells; format: functional, cell-based
[8] = Cytotoxicity against HEK293T cells; format: toxicity, cell-based, HEK-293T; conditions: human
[9] = system: MCF7; experiment: cells; conditions: Homo sapiens
[10] = system: HL-60; experiment: Cytotoxicity against human HL-60 cells assessed as reduction in cell viability incubated for 72 hr by MTT assay; format: functional, cell-based; conditions: HL-60, 72 h
[11] = system: K562; experiment: Cytotoxicity against human K562 cells assessed as reduction in cell viability incubated for 72 hrs by Cell-titer Glo based analysis; format: functional; conditions: K562, 72 h
[12] = system: HL-60; experiment: Cytotoxicity against human HL-60 cells assessed as reduction in cell viability incubated for 72 hrs by Cell-titer Glo based analysis; format: functional; conditions: HL-60, 72 h
[13] = system: HPBALL; experiment: Cytotoxicity against human HPBALL cells assessed as reduction in cell viability incubated for 72 hrs by MTT assay; format: functional, cell-based
[14] = system: NALM-6; experiment: Cytotoxicity against human NALM-6 cells assessed as reduction in cell viability incubated for 72 hrs by MTT assay; format: functional, cell-based; conditions: NALM-6, 72 h
[15] = system: MOLM-13; experiment: Antiproliferative activity against human MOLM-13 cells assessed as reduction in cell viability incubated for 72 hrs by MTT assay; format: functional, cell-based; conditions: MOLM-13, 72 h
[16] = system: Plasmodium falciparum; experiment: Antiplasmodial activity against Plasmodium falciparum 3D7 assessed as reduction in parasite growth incubated for 3 days by ELISA analysis; format: functional, organism-based; conditions: 3D7, 72 h
[17] = system: Plasmodium falciparum; experiment: Antiplasmodial activity against Plasmodium falciparum Dd2 assessed as reduction in parasite growth incubated for 3 days by ELISA analysis; format: functional, organism-based; conditions: Dd2, 72 h
[18] = system: Plasmodium falciparum; experiment: Antiplasmodial activity against artemisinin-resistant Plasmodium falciparum Dd2 R539T assessed as reduction in parasite growth incubated for 3 days by ELISA analysis; format: functional, organism-based; conditions: 72 h
[19] = target: T1, Protein deacetylase HDAC6; experiment: Inhibition of human recombinant HDAC6 using ZMAL (Z-Lys(Ac)-AMC as fluorogenic substrate pre-incubated for 30 mins followed by substrate addition and measured for 1 hr by Fluorescence based analysis
[20] = target: Histone deacetylase 1 (Homo sapiens, UniProt Q13547); experiment: Inhibition of HDAC1 (unknown origin)
[21] = target: Serine/threonine-protein kinase B-raf (Homo sapiens, UniProt P15056); experiment: Inhibition of wild type BRAF (unknown origin)
[22] = system: HCT-116; experiment: cells; conditions: Homo sapiens
[23] = system: HCT-116; experiment: cells; format: functional, cell-based; conditions: Homo sapiens, HCT-116, 72 h
[24] = system: HCT 116 TP53(-/-); experiment: cells; format: functional, cell-based; conditions: Homo sapiens, 72 h
[25] = system: 518A2; experiment: cells; format: functional, cell-based; conditions: Homo sapiens, 518A2, 72 h
[26] = system: Huh-7; experiment: cells; format: functional, cell-based; conditions: Homo sapiens, Huh-7, 72 h
[27] = system: HepG2; experiment: cells; format: functional, cell-based; conditions: Homo sapiens, HepG2, 72 h
[28] = system: HepG2; experiment: Antiproliferative activity against human HepG2 cells measured after 24 hrs by MTT assay; format: functional, cell-based; conditions: HepG2, 24 h
[29] = system: HCT-116; experiment: Antiproliferative activity against human HCT-116 cells measured after 24 hrs by MTT assay; format: functional, cell-based; conditions: HCT-116, 24 h
[30] = system: MCF7; experiment: Antiproliferative activity against human MCF7 cells measured after 24 hrs by MTT assay; format: functional, cell-based; conditions: MCF7, 24 h
[31] = system: HeLa; experiment: Antiproliferative activity against human HeLa cells measured after 24 hrs by MTT assay; format: functional, cell-based
[32] = system: A549; experiment: Antiproliferative activity against human A549 cells assessed as inhibition of cell growth incubated for 48 hrs by SRB assay; format: functional, cell-based; conditions: A549, 48 h
[33] = system: HCT-116; experiment: cells; format: functional, cell-based; conditions: Homo sapiens, HCT-116, 48 h
[34] = Cytotoxicity against human L02 cells; format: toxicity, cell-based
[35] = Cytotoxicity against human BEAS-2B cells; format: toxicity, cell-based

Histone deacetylase 1, sequence (Q13547 whole entry): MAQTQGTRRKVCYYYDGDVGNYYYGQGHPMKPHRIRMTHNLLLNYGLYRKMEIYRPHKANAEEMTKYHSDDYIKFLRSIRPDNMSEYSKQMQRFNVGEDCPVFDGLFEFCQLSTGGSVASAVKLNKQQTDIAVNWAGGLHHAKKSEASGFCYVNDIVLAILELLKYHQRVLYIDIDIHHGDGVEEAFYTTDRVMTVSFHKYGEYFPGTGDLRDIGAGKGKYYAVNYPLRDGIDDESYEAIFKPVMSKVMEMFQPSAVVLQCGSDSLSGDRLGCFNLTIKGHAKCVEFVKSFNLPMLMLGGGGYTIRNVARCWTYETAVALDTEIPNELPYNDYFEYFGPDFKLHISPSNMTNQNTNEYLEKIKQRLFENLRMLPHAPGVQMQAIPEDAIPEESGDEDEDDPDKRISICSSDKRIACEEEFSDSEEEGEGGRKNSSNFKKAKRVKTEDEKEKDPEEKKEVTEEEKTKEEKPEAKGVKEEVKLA
Serine/threonine-protein kinase B-raf, sequence (P15056 whole entry): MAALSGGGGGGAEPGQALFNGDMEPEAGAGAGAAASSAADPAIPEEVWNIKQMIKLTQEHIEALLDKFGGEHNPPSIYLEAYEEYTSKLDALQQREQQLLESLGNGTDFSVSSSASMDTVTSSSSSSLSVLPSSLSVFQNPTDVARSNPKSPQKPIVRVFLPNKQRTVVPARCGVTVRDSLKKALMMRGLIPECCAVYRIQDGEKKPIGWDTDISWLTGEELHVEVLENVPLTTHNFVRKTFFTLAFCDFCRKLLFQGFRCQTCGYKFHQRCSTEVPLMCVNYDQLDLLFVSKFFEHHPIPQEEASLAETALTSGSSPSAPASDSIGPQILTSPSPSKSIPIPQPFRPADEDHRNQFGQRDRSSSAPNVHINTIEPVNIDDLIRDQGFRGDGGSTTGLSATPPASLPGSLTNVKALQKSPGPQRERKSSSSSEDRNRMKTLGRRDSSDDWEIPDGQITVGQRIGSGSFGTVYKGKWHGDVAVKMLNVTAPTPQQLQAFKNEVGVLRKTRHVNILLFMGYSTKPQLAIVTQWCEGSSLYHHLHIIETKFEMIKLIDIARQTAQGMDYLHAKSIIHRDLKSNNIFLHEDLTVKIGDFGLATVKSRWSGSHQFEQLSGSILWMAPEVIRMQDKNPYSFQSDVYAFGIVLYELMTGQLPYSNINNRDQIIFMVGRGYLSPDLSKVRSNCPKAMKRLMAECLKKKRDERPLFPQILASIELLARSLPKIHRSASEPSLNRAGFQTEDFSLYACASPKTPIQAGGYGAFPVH

With `Cc1ccc(Cn2cnc3cc(/C=C/C(=O)NO)ccc3c2=O)cc1` the IC50 [1] was 0.67 µM, the IC50 [2] was 0.67 µM and the IC50 [3] was 0.67 µM. For the same molecule, the IC50 [4] was 0.033 µM.
In the case of `COc1ccc(-c2ccc(C(=O)N3CCc4c(cc(Cl)c(C(=O)NO)c4Cl)C3)cc2)cc1`, the IC50 [5] is reported as 0.0087 µM, the IC50 [6] is reported as 4.01 µM and the IC50 [7] is reported as 4.01 µM. It also gave an IC50 [8] of 51.2 µM and an IC50 [9] of 4.01 µM.
With `C[C@@H]1CC[C@H]2[C@@H](C)C(SCCC(=O)NO)C[C@@H]3O[C@]4(C)CC[C@@H]1[C@]32OO4` (stereo partly specified) the IC50 [10] was 0.69 µM, the IC50 [11] was 0.69 µM and the IC50 [12] was 0.69 µM. It also gave an IC50 [13] of 0.15 µM, an IC50 [14] of 0.26 µM and an IC50 [15] of 0.69 µM. For the same molecule, the IC50 [16] was 0.0019 µM, the IC50 [17] was 0.0019 µM and the IC50 [18] was 0.0019 µM. The IC50 [19] was 0.045 µM.
In the case of `O=C(/C=C/c1ccc2c(=O)n(Cc3ccc(Cl)cc3)cnc2c1)NO`, the IC50 [1] is reported as 0.67 µM, the IC50 [2] is reported as 0.67 µM and the IC50 [3] is reported as 0.67 µM. The IC50 [4] was 0.047 µM.
Work on `CC(C)(C)c1nc(-c2cccc(NS(=O)(=O)c3c(F)cccc3F)c2F)c(-c2ccnc(NCCCCCCC(=O)NO)n2)s1` yielded an IC50 [5] of 0.0156 µM, an IC50 [20] of 0.0156 µM and an IC50 [21] of 0.00171 µM. For the same molecule, the IC50 [22] was 0.31 µM.
With `COc1ccc(-c2ocnc2-c2cc(OC)c(OC)c(OC)c2)cc1OCCCCCC(=O)NO` the IC50 [5] was roughly 1 µM, the IC50 [23] was 0.61 µM and the IC50 [24] was 0.61 µM. For the same molecule, the IC50 [25] was 0.61 µM, the IC50 [26] was 0.61 µM and the IC50 [27] was 0.61 µM.
Work on `CCCC(CCC)C(=O)O` [VALPROIC ACID] yielded an IC50 [28] of 4.66 µM, an IC50 [29] of 4.66 µM and an IC50 [30] of 4.66 µM. It also gave an IC50 [31] of 4.66 µM.
`O=C(NO)c1ccc(CNc2cccc3cc(-c4cccnc4)cnc23)cc1` showed an IC50 [32] of 1.29 µM and an IC50 [33] of 1.29 µM.
Molecule `COCCOc1ccc2c(OCCCCCCCC(=O)NO)cc(=O)oc2c1` has an IC50 [34] greater than 50 µM and an IC50 [35] greater than 50 µM.
